# Measured values: patent US12398097B2, “WDR5-MYC inhibitors” (Vanderbilt University, priority 2019, dated 2025)
# Target: WDR5 (Homo sapiens, UniProt P61964)
# Experiment: Competition-based fluorescence polarization anisotropy assay
# Details: binding to WDR5; displacement of FITC-labeled small molecule probe (analogous to Example J2 or HCH-25) or peptide probe FITC-AHx-SEEEIDVVSV; pH 6.0; Ki converted from IC50
# Protocol: Compounds of the present invention were assessed for their ability to bind to WDr5 using a competition-based fluorescence polarization anisotropy assay, similar to the method previously described. […] Fluorescence polarization measurements were performed in 384-well plates (Greiner Bio One) using a Cytation 3 plate reader (BioTek). Fluorescein isothiocyanate (FITC)-labeled peptide probe ([…]) was purchased from GenScript USA Inc and used without further purification. […] The assay buffer contained 200 mM phosphate, 300 mM NaCl, and 0.5 mM TCEP and 0.1% Chaps at pH 6.0. […] This was converted into a binding dissociation constant (Ki value) according to the formula: […] Data shown in the table below represents a K; determined from this method for each Example, using either a fluorescently labeled small molecule probe analogous to Example J2 or Example HCH-25, or the peptide probe described above, in the assay.
row,Ki [nM],Compound
1,510,"O=C(NC1CC(O)C1)c1cc(OC(F)(F)F)cc(NS(=O)(=O)c2cc(Br)ccc2O)c1O (mixture of isomers) [HCH-3, 3-((5-Bromo-2-hydroxyphenyl)sulfonamido)-2-hydroxy-N-(3-hydroxycyclobutyl)-5-(trifluoromethoxy)benzamide]"
2,250,"C[C@H](NC(=O)c1cc(OC(F)(F)F)cc(NS(=O)(=O)c2cc(Br)ccc2O)c1O)C(N)=O (stereo in doubt) [HCH-48, N-(1-Amino-1-oxopropan-2-yl)-3-((5-bromo-2-hydroxyphenyl)sulfonamido)-2-hydroxy-5-(trifluoromethoxy)benzamide]"
3,2490,"O=C(O)c1cc(Cl)cc(NS(=O)(=O)c2cc(Cl)c(Cl)cc2O)c1O [Example J11, 5-Chloro-3-((4,5-dichloro-2-hydroxyphenyl)sulfonamido)-2-hydroxybenzoic acid]"
4,11100,"CCc1cc(O)c(S(=O)(=O)Nc2cc(Cl)cc(C(=O)O)c2O)cc1Cl [Example J12, 5-Chloro-3-((5-chloro-4-ethyl-2-hydroxyphenyl)sulfonamido)-2-hydroxybenzoic acid]"
5,780,"O=C(O)c1cc(Cl)cc(NS(=O)(=O)c2cc(Br)cc3cccnc23)c1O [Example J13, 3-((6-Bromoquinoline)-8-sulfonamido)-5-chloro-2-hydroxybenzoic acid]"
6,370,"CNC(=O)c1cc(Cl)cc(NS(=O)(=O)c2cc(Br)ccc2O)c1O [Example J14, 3-((5-Bromo-2-hydroxyphenyl)sulfonamido)-5-chloro-2-hydroxy-N-methylbenzamide]"
7,610,"COCCNC(=O)c1cc(Cl)cc(NS(=O)(=O)c2cc(Br)ccc2O)c1O [Example J15, 3-((5-Bromo-2-hydroxyphenyl)sulfonamido)-5-chloro-2-hydroxy-N-(2-methoxyethyl)benzamide]"

# Continued, compound first:
row,Compound,Ki [nM]
1,2-Bromo-N-(5-chloro-2-hydroxy-3-nitrophenyl)-4-ethyl-5-hydroxybenzenesulfonamide [NE3],60
2,"O=C(O)c1cc(Cl)cc(NS(=O)(=O)c2cc(Br)ccc2O)c1O [Example J1, 3-((5-Bromo-2-hydroxyphenyl)sulfonamido)-5-chloro-2-hydroxybenzoic acid]",90
3,"COc1ccc(Br)cc1S(=O)(=O)Nc1cc(Cl)cc(C(=O)O)c1O [Example J2, 3-((5-Bromo-2-methoxyphenyl)sulfonamido)-5-chloro-2-hydroxybenzoic acid]",180
4,"O=C(O)c1cc(Cl)cc(NS(=O)(=O)c2cc(Br)cc(Cl)c2O)c1O [Example J4, 3-((5-Bromo-3-chloro-2-hydroxyphenyl)sulfonamido)-5-chloro-2-hydroxybenzoic acid]",60
5,"O=C(O)c1cc(Cl)cc(NS(=O)(=O)c2cc(Br)cc(F)c2O)c1O [Example J5, 3-((5-Bromo-3-fluoro-2-hydroxyphenyl)sulfonamido)-5-chloro-2-hydroxybenzoic acid]",340
6,"O=C(O)c1cc(Cl)cc(NS(=O)(=O)c2cc(Br)cc([N+](=O)[O-])c2O)c1O [Example J6, 3-((5-Bromo-2-hydroxy-3-nitrophenyl)sulfonamido)-5-chloro-2-hydroxybenzoic acid]",110
7,"COc1cc(Cl)c(Br)cc1S(=O)(=O)Nc1cc(Cl)cc(C(=O)O)c1O [Example J7, 3-((5-Bromo-4-chloro-2-methoxyphenyl)sulfonamido)-5-chloro-2-hydroxybenzoic acid]",3750
8,"COc1cc(F)c(Br)cc1S(=O)(=O)Nc1cc(Cl)cc(C(=O)O)c1O [Example J8, 3-((5-Bromo-4-fluoro-2-methoxyphenyl)sulfonamido)-5-chloro-2-hydroxybenzoic acid]",2770
9,"O=C(O)c1cc(Cl)cc(NS(=O)(=O)c2cc(Br)c(F)cc2O)c1O [Example J9, 3-((5-Bromo-4-fluoro-2-hydroxyphenyl)sulfonamido)-5-chloro-2-hydroxybenzoic acid]",2670
10,"O=C(O)c1cc(Cl)cc(NS(=O)(=O)c2cc(Cl)c(F)cc2O)c1O [Example J10, 5-Chloro-3-((5-chloro-4-fluoro-2-hydroxyphenyl)sulfonamido)-2-hydroxybenzoic acid]",21900
